# Laboratory results taken from patent publication US7238720B2, “Pharmaceutical use of N-carbamoylazole derivatives” (Eisai R & D Management Co. Ltd., priority 2001, dated 2007).
# Target: T1, DPP-IV, obtained from porcine kidneys (Sus scrofa, UniProt P22411)
# T1 construct: DPP-IV, obtained from porcine kidneys; from tissue; host or cells: porcine kidney
# Experiment: Measurement of DPPIV inhibiting effects (Gly-Pro-p-nitroanilide, absorbance at 405 nm)
# Type: biochemical
# Settings: porcine kidney DPP-IV 10 mU/mL, 20 min preincubation, Gly-Pro-p-nitroanilide 0.33 mM, pH 7.4
# Procedure: Measurement of DPPIV Inhibiting Effects
# DPP-IV, obtained from porcine kidneys, was dissolved in a reaction buffer solution (50 mM Tris-HCl, pH 7.4, 0.1% BSA) such that the concentration of DPP-IV was at 10 mU/mL. This solution (110 μl) was placed into test tubes, to which compounds to be tested were further added at a quantity of 15 μl and incubated at room temperature for 20 minutes. Twenty-five microliters of a solution in which Gly-Pro-p-nitroanilide was dissolved at 2 mM was added (final concentration, 0.33 mM) to start the enzymatic reaction. The reaction time was 20 minutes. The reaction was stopped by the addition of 25 μl of 1 N phosphoric acid.
# T1 sequence (P22411 whole entry): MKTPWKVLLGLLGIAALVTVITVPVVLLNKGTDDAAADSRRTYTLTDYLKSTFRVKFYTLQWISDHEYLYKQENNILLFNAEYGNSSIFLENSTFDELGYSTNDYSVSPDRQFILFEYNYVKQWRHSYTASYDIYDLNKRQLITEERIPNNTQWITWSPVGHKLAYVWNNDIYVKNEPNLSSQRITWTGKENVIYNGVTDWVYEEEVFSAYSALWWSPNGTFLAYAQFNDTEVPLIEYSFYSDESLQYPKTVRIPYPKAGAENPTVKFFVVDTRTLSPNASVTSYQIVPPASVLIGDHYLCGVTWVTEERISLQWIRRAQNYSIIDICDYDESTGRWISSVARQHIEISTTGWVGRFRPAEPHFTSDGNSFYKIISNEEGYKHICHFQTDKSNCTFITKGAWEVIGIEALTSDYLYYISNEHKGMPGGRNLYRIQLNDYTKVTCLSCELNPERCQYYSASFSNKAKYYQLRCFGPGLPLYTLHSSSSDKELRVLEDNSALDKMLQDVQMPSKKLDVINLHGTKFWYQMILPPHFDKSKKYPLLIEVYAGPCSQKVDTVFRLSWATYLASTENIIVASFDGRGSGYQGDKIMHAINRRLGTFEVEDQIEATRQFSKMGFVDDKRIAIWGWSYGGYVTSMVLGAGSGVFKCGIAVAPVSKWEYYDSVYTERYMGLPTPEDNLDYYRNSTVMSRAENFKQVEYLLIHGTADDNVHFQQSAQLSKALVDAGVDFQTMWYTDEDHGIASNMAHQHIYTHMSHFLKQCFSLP
molecule,measurement,value
"Cc1ccc(S(=O)(=O)c2ncn(C(=O)N(C)C)n2)cc1 [Example 60, 3-(4-Toluenesulfonyl)-1-dimethylcarbamoyl-1H-1,2,4-triazole]",IC50,335 nM
"Cc1cc(C)c(S(=O)(=O)c2ncn(C(=O)N(C)C(C)C)n2)c(C)c1 [Example 38, 3-(2,4,6-Trimethylphenyl)sulfonyl-1-(N-methyl-N-isopropylcarbamoyl)-1H-1,2,4-triazole]",IC50,1.63 nM
"CN(C)C(=O)n1cnc(SC2CCOc3ccccc32)n1 (stereo not shown) [Example 10, 3-(Chroman-4-yl)thio-1-dimethylcarbamoyl-1H-1,2,4-triazole]",IC50,694 nM
"Cc1nn(-c2ccccc2)c(C)c1Sc1ncn(C(=O)N(C)C)n1 [Example 48, 3-(3,5-Dimethyl-1-phenylpyrazol-4-yl)thio-1-dimethylcarbamoyl-1H-1,2,4-triazole]",IC50,1550 nM
"CN(C)C(=O)n1cnc(S(=O)(=O)Cc2ccc(F)cc2)n1 [Example 4, 3-(4-Fluorobenzyl)sulfonyl-1-dimethylcarbamoyl-1H-1,2,4-triazole]",IC50,657 nM
"CN(C)C(=O)n1cnc(S(=O)(=O)C(c2ccccc2)c2ccccc2)n1 [Example 7, 3-(Diphenylmethyl)sulfonyl-1-dimethylcarbamoyl-1H-1,2,4-triazole]",IC50,192 nM
"CN(C)C(=O)n1cnc(Sc2cccc(Br)n2)n1 [Example 52, 3-(6-Bromo-2-pyridyl)thio-1-dimethylcarbamoyl-1H-1,2,4-triazole]",IC50,4790 nM
"CN(C)C(=O)n1cnc(SC2CCCCC2)n1 [Example 14, 3-Cyclohexylthio-1-dimethylcarbamoyl-1H-1,2,4-triazole]",IC50,2220 nM
"CC(C)CCS(=O)(=O)c1ncn(C(=O)N(C)C)n1 [Example 20, 3-(3-Methylbutyl)sulfonyl-1-dimethylcarbamoyl-1H-1,2,4-triazole]",IC50,1370 nM
"CN(C)C(=O)n1cnc(S(=O)(=O)Cc2ccc(C(C)(C)C)cc2)n1 [Example 5, 3-(4-Tert-butylbenzyl)sulfonyl-1-dimethylcarbamoyl-1H-1,2,4-triazole]",IC50,1350 nM
"Cc1cccc(OCC(F)(F)F)c1S(=O)(=O)c1ncn(C(=O)N(C)C)n1 [Example 41, 3-[2-(2,2,2-Trifluoroethyl)oxy-6-methylphenyl]sulfonyl-1-dimethyl-carbamoyl-1H-1,2,4-triazole]",IC50,4.25 nM
"CN(C)C(=O)n1cnc(SCc2ccccc2)n1 [Example 1, 3-Benzylthio-1-dimethylcarbamoyl-1H-1,2,4-triazole]",IC50,4690 nM
"3-(Endo-norbornan-2-yl)sulfonyl-1-(N-methyl-N-phenylcarbamoyl)-1H-1,2,4-triazole [Example 22]",IC50,2290 nM
"CN(C)C(=O)n1cnc(S(=O)(=O)N2CCc3ccccc32)n1 [Example 57, 3-(2,3-Dihydro-1H-indol-1-yl)sulfonyl-1-dimethylcarbamoyl-1H-1,2,4-triazole]",IC50,230 nM
"Cc1cc(C)c(S(=O)(=O)c2ncn(C(=O)N(C)C)n2)c(C)c1 [Example 33, 3-(2,4,6-Trimethylphenyl)sulfonyl-1-dimethylcarbamoyl-1H-1,2,4-triazole]",IC50,9.51 nM
"CN(C)C(=O)n1cnc(Sc2cc(F)c(C#N)cc2F)n1 [Example 44, 3-(4-Cyano-2,5-difluorophenyl)thio-1-dimethylcarbamoyl-1H-1,2,4-triazole]",IC50,318 nM
"CN(C)C(=O)n1cnc(S(=O)(=O)C2CCCCC2)n1 [Example 15, 3-Cyclohexylsulfonyl-1-dimethylcarbamoyl-1H-1,2,4-triazole]",IC50,311 nM
"CN(C)C(=O)n1cnc(SC(c2ccccc2)c2ccccc2)n1 [Example 6, 3-(Diphenylmethyl)thio-1-dimethylcarbamoyl-1H-1,2,4-triazole]",IC50,3460 nM
"CC(C)N(C)C(=O)n1cnc(S(=O)(=O)[C@@H]2C[C@@H]3CC[C@H]2C3)n1 (relative stereo) [Example 29, 3-(Endo-norbornan-2-yl)sulfonyl-1-(N-methyl-N-isopropylcarbamoyl)-1H-1,2,4-triazole]",IC50,8.88 nM
"Cc1nc2ccccn2c1S(=O)(=O)c1ncn(C(=O)N(C)C)n1 [Example 51, 3-(2-Methylimidazo[1,2-a]pyridin-3-yl)sulfonyl-1-dimethylcarbamoyl-1H-1,2,4-triazole]",IC50,106 nM
"CN(C)C(=O)n1cnc(S(=O)(=O)c2cc(F)c(C#N)cc2F)n1 [Example 45, 3-(4-Cyano-2,5-difluorophenyl)sulfonyl-1-dimethylcarbamoyl-1H-1,2,4-triazole]",IC50,32.4 nM
"CN(C)C(=O)n1cnc(SCC2CCCCC2)n1 [Example 16, 3-Cyclohexylmethylthio-1-dimethylcarbamoyl-1H-1,2,4-triazole]",IC50,5530 nM
"CCN(C)C(=O)n1cnc(S(=O)(=O)c2c(C)cc(C)cc2C)n1 [Example 36, 3-(2,4,6-Trimethylphenyl)sulfonyl-1-(N-methyl-N-ethylcarbamoyl)-1H-1,2,4-triazole]",IC50,0.347 nM
"C=CCN(C)C(=O)n1cnc(S(=O)(=O)[C@@H]2C[C@@H]3CC[C@H]2C3)n1 (relative stereo) [Example 27, 3-(Endo-norbornan-2-yl)sulfonyl-1-(N-methyl-N-allylcarbamoyl)-1H-1,2,4-triazole]",IC50,78.2 nM
"CCCN(C)C(=O)n1cnc(S(=O)(=O)c2c(C)cc(C)cc2C)n1 [Example 37, 3-(2,4,6-Trimethylphenyl)sulfonyl-1-(N-methyl-N-propylcarbamoyl)-1H-1,2,4-triazole]",IC50,10 nM
"CN(C)C(=O)n1cnc(S(=O)(=O)C2CCOc3ccccc32)n1 (stereo not shown) [Example 11, 3-(Chroman-4-yl)sulfonyl-1-dimethylcarbamoyl-1H-1,2,4-triazole]",IC50,216 nM
"Cc1ccc(S(=O)(=O)c2ccn(C(=O)N(C)C)n2)cc1 [Example 59, 3-(4-Toluenesulfonyl)-1-dimethylcarbamoyl-1H-pyrazole]",IC50,4220 nM
"Cc1cc(C)c(S(=O)(=O)c2ncn(C(=O)N(C)c3ccccc3)n2)c(C)c1 [Example 35, 3-(2,4,6-Trimethylphenyl)sulfonyl-1-(N-methyl-N-phenylcarbamoyl)-1H-1,2,4-triazole]",IC50,1510 nM
"CN(C)C(=O)n1cnc(SCC23CC4CC(CC(C4)C2)C3)n1 [Example 18, 3-(1-Adamantylmethyl)thio-1-dimethylcarbamoyl-1H-1,2,4-triazole]",IC50,4530 nM
"O=C(N1CCSC1)n1cnc(S(=O)(=O)[C@@H]2C[C@@H]3CC[C@H]2C3)n1 (relative stereo) [Example 25, 3-(Endo-norbornan-2-yl)sulfonyl-1-(1,3-thiazolidin-3-yl)carbonyl-1H-1,2,4-triazole]",IC50,57.4 nM
"CN(C)C(=O)n1cnc(S(=O)(=O)c2cccc(Br)n2)n1 [Example 53, 3-(6-Bromo-2-pyridyl)sulfonyl-1-dimethylcarbamoyl-1H-1,2,4-triazole]",IC50,351 nM
"Cc1noc(C)c1S(=O)(=O)c1ncn(C(=O)N(C)C)n1 [Example 47, 3-(3,5-Dimethylisoxazol-4-yl)sulfonyl-1-dimethylcarbamoyl-1H-1,2,4-triazole]",IC50,103 nM
"Cc1nn(-c2ccccc2)c(C)c1S(=O)(=O)c1ncn(C(=O)N(C)C)n1 [Example 49, 3-(3,5-Dimethyl-1-phenylpyrazol-4-yl)sulfonyl-1-dimethylcarbamoyl-1H-1,2,4-triazole]",IC50,25.8 nM
"CN(C)C(=O)n1cnc(S[C@@H]2C[C@@H]3CC[C@H]2C3)n1 (relative stereo) [Example 12, 3-(Endo-norbornan-2-yl)thio-1-dimethylcarbamoyl-1H-1,2,4-triazole]",IC50,1730 nM
"CC(C)CN(C)C(=O)n1cnc(S(=O)(=O)[C@@H]2C[C@@H]3CC[C@H]2C3)n1 (relative stereo) [Example 30, 3-(Endo-norbornan-2-yl)sulfonyl-1-(N-methyl-N-isobutylcarbamoyl)-1H-1,2,4-triazole]",IC50,266 nM
"CN(C)C(=O)n1cnc(S(=O)(=O)N2CCCCC2)n1 [Example 54, 3-(Piperidin-1-yl)sulfonyl-1-dimethylcarbamoyl-1H-1,2,4-triazole]",IC50,164 nM
"O=C(N1CCCC1)n1cnc(S(=O)(=O)[C@@H]2C[C@@H]3CC[C@H]2C3)n1 (relative stereo) [Example 26, 3-(Endo-norbornan-2-yl)sulfonyl-1-(pyrrolidin-1-yl)carbonyl-1H-1,2,4-triazole]",IC50,244 nM
